Molecular target: T1, Streptokinase A (Streptococcus pyogenes serotype M1, UniProt P10520)
T1 sequence (P10520 whole entry): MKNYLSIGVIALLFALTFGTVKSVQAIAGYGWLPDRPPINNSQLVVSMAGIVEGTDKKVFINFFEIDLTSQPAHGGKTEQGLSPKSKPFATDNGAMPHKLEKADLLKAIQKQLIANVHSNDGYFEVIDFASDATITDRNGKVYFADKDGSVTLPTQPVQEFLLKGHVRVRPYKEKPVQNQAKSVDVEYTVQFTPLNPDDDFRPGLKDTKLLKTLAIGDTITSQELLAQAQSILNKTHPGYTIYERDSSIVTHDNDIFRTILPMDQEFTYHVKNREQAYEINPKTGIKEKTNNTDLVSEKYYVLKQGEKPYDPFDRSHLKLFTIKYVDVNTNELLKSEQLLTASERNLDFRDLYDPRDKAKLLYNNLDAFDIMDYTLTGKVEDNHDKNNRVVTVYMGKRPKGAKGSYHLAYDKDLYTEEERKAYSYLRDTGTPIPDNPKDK
Assay: viability-normalized secreted streptokinase activity reduction – plasminogen activation absorbance, OD405, dose response (AID 1914)

## COc1cccc(CN=Nc2nc(Nc3ccccc3)nc(-n3nc(C)cc3C)n2)c1O [(6E)-6-[[2-[4-(3,5-dimethylpyrazol-1-yl)-6-phenylazanyl-1,3,5-triazin-2-yl]hydrazinyl]methylidene]-2-methoxy-cyclohexa-2,4-dien-1-one]
  EC50: > 150 µM

## CC(=N)C(C#N)C(=O)CSc1nc2cc(Cl)ccc2c(=O)n1Cc1ccco1 (stereo not drawn) [(E)-3-amino-2-[2-[7-chloro-3-(furan-2-ylmethyl)-4-oxoquinazolin-2-yl]sulfanylacetyl]but-2-enenitrile]
  EC50: > 150 µM

## CC(=N)C(C#N)C(=O)CSc1nc2scc(-c3ccccc3)c2c(=O)n1C (stereo not drawn) [(E)-3-azanyl-2-[2-(3-methyl-4-oxidanylidene-5-phenyl-thieno[2,3-d]pyrimidin-2-yl)sulfanylethanoyl]but-2-enenitrile]
  EC50: > 150 µM

## Cc1ccc(F)c(NC(=O)C(C#N)C(=O)c2ccc(C(C)(C)C)cc2)c1 (stereo not drawn) [(Z)-2-(4-tert-butylphenyl)carbonyl-3-[(2-fluoranyl-5-methyl-phenyl)amino]-3-oxidanyl-prop-2-enenitrile]
  EC50: > 150 µM

## Cc1ccc(C(=O)CC(=O)C(=O)NC23CC4CC(CC(C4)C2)C3)cc1 [(Z)-N-(1-adamantyl)-4-hydroxy-4-(4-methylphenyl)-2-oxobut-3-enamide]
  EC50: > 150 µM

## CCOc1ccc2[nH]c(=O)c(CN(CC3COCCO3)C(=O)C3CC3)cc2c1 (stereo not drawn) [MLS000031787]
  EC50: > 150 µM

## CC(C)c1oc(NC(=O)Nc2ccc(Cl)c(Cl)c2)nc1O [MLS000053797]
  EC50: > 150 µM

## CCCCCCC1=Cc2c/c(=C3/NN=C(c4ccccc4)O3)c(=O)oc2=CC1=O [MLS000068623]
  EC50: > 150 µM

## O=C1C2=C3C(=C/C1=C\NNC(=O)c1ccccc1O)CCCN3CCC2 [MLS000332414]
  EC50: > 150 µM

## Cc1cc(Br)c(OCc2ccc(C(=O)NN=C3CC4CCC=C34)cc2)c(Br)c1 (stereo not drawn) [MLS000335385]
  EC50: > 150 µM

## CC(C)CN1C(=O)/C(=N\NC(=O)c2cccc(S(=O)(=O)N3CCCCC3)c2)c2ccccc21 [MLS000417389]
  EC50: > 150 µM

## CCCCCCCCOC(=O)C1C(C)=Nc2nnnn2C1c1cccs1 (stereo not drawn) [MLS000519969]
  EC50: 50 µM

## CC(NNC(=O)c1ccccc1O)=C1C(=O)c2ccccc2C1=O [MLS000523164]
  EC50: > 150 µM

## Clc1ccc(-c2ccc(CN=Nc3cc(N4CCOCC4)nc(N4CCOCC4)n3)o2)cc1 [MLS000527145]
  EC50: > 150 µM

## O=C1C=CC(N=Nc2ccc([N+](=O)[O-])cc2)C(O)=C1 (stereo not drawn) [MLS000530152]
  EC50: 50 µM

## O=C1C([N+](=O)[O-])=CC(Cl)=CC1CN=Nc1ccccn1 (stereo not drawn) [MLS000539830]
  EC50: 11.1 µM

## O=NC(c1ccc(Cl)cc1Cl)c1ncc(C(F)(F)F)cc1Cl (stereo not drawn) [MLS000540015]
  EC50: 35.2 µM

## Cc1ccc(-n2c(=O)c3[nH][nH]n(CC(=O)N4N=C(c5cccc6ccccc56)CC4c4ccccc4)c=3c2=O)cc1 (stereo not drawn) [MLS000546672]
  EC50: 35.7 µM

## CC(C)(C)C1CCC2=C(C#N)C(=N)C(C#N)(C#N)C(c3cccs3)C2C1 (stereo not drawn) [MLS000552642]
  EC50: 25.7 µM

## c1csc(CN=Nc2ncnc3sc4c(c23)CCC4)c1 [MLS000571423]
  EC50: > 150 µM

## N#CC1C(=N)OC2=C(CCc3ccccc32)C1c1ccccc1Cl (stereo not drawn) [MLS000586146]
  EC50: 11.9 µM

## COc1ccc(C2C(C(=O)c3ccccc3)C(C)=Nc3nc4ccccc4n32)c(OC)c1 (stereo not drawn) [MLS000586747]
  EC50: > 150 µM

## COc1ccc(CN=Nc2cc(C)nc(-n3nc(C)cc3C)n2)c(OC)c1 [MLS000589396]
  EC50: > 150 µM

## O=C(O)c1ccc(N=NCc2ccc(OC(=O)c3ccccc3Cl)cc2)cc1 [MLS000589715]
  EC50: > 150 µM

## C=Nc1c(N(C(C)=O)c2ccc(Br)cc2)c(O)c2ccccc2c1O [MLS000700612]
  EC50: 23.9 µM

## CC(C)C(N=Nc1ccccc1[N+](=O)[O-])c1ccccc1 (stereo not drawn) [MLS000712651]
  EC50: 18.4 µM

## Oc1ccc(Br)cc1CN=Nc1nc(N2CCCCC2)nc(N2CCOCC2)n1 [MLS000713264]
  EC50: 33.6 µM

## CCOC(=O)c1ccc(NC(=O)Cc2sc(N=NCc3c[nH]c4ccccc34)nc2O)cc1 [MLS000722052]
  EC50: > 150 µM

## CC(N=Nc1ccc(C(=O)O)cc1)c1ccc2c(c1)Nc1ccccc1S2 (stereo not drawn) [MLS000759774]
  EC50: > 150 µM

## Cc1ccc(NC(=S)N/N=C2\C(=O)Nc3ccccc32)cc1 [MLS000760038]
  EC50: > 150 µM

## Cc1[nH]n(-c2nc3ccccc3[nH]2)c(=O)c1Cc1ccccc1 [MLS000762809]
  EC50: > 150 µM

## CCCCCCC(=O)NNC=C1C(=O)NC(=S)N(CCCC)C1=O [MLS000763126]
  EC50: > 150 µM

## O=C1N=C(Nc2ccccc2)SC1=Cc1c[nH]c2ccccc12 [MLS000766635]
  EC50: > 150 µM

## COC1=CC(CN=Nc2nc3ccccc3s2)C=C([N+](=O)[O-])C1=O (stereo not drawn) [MLS000777866]
  EC50: > 150 µM

## O=C1N=c2ccccc2=C1NNC(=S)N1CCOCC1 [MLS000778251]
  EC50: > 150 µM

## CCCOc1ccc(C2C(C(=O)c3cc4ccccc4o3)C(=O)C(=O)N2c2cc(C)on2)cc1OC (stereo not drawn) [MLS001142810]
  EC50: > 150 µM

## Cc1ccc(C2C(C(=O)c3cc4ccccc4o3)C(=O)C(=O)N2c2cc(C)on2)cc1 (stereo not drawn) [MLS001147776]
  EC50: 6.3 µM

## N#CC(C(=O)CCl)c1nc2c(s1)CCc1ccccc1-2 (stereo not drawn) [MLS001171530]
  EC50: > 150 µM

## O=C(Nc1nnc(-c2ccc(Br)cc2)o1)c1cccc(-n2c(O)ccc2O)c1 [MLS001235111]
  EC50: > 150 µM

## COC(=O)/N=N/C=C1\C=[N+]([O-])c2ccccc2N1O [MLS001333201]
  EC50: > 150 µM

## COc1ccc(CN=Nc2nc(Nc3ccccc3)nc(N3CCCCC3)n2)cc1OC [N2-[(3,4-dimethoxyphenyl)methylideneamino]-N4-phenyl-6-piperidin-1-yl-1,3,5-triazine-2,4-diamine]
  EC50: > 150 µM

## O=C1C([N+](=O)[O-])=CC(Cl)=CC1/C=N/NC(=O)C(O)(c1ccccc1)c1ccccc1 (stereo not drawn) [N''''-[(E)-(3-chloro-5-nitro-6-oxocyclohexa-2,4-dien-1-ylidene)methyl]-2-hydroxy-2,2-diphenylacetohydrazide]
  EC50: > 150 µM

## COC1=CC([N+](=O)[O-])=CC(/C=N/NC(=O)C(C)Nc2cccc(C)c2)C1=O (stereo not drawn) [N'-[(1E)-(2-hydroxy-3-methoxy-5-nitrophenyl)methylene]-2-[(3-methylphenyl)amino]propanohydrazide]
  EC50: > 150 µM

## O=C1NC(=S)N(C2CCCCC2)C(=O)C1=CNNC(=O)c1ccccc1 [N'-[(E)-(1-cyclohexyl-4,6-dioxo-2-sulfanylidene-1,3-diazinan-5-ylidene)methyl]benzohydrazide]
  EC50: > 150 µM

## O=C1NC(=O)N(Cc2ccccc2)C(=O)C1=CNNC(=O)c1ccccc1 [N'-[(E)-[2,4,6-tris(oxidanylidene)-1-(phenylmethyl)-1,3-diazinan-5-ylidene]methyl]benzohydrazide]
  EC50: > 150 µM

## CN(C)S(=O)(=O)c1ccc(-c2csc(N=NCc3ccc(O)cc3)n2)cc1 [N,N-dimethyl-4-[2-[2-[(4-oxidanylidenecyclohexa-2,5-dien-1-ylidene)methyl]hydrazinyl]-1,3-thiazol-4-yl]benzenesulfonamide]
  EC50: > 150 µM

## Cc1[nH]c2ccccc2c1CN=Nc1nc2ccccc2[nH]1 [N-(1H-Benzoimidazol-2-yl)-N'-[1-(2-methyl-1H-indol-3-yl)-meth-(E)-ylidene]-hydrazine]
  EC50: > 150 µM

## O=C1Nc2ccccc2C1=NNc1ccc(S(=O)(=O)Nc2cccc(Cl)c2)cc1[N+](=O)[O-] [N-(3-chlorophenyl)-3-nitro-4-[2-(2-oxoindol-3-yl)hydrazinyl]benzenesulfonamide]
  EC50: 27.4 µM

Source: BindingDB's records for doi:10.7270/Q2736PBV (Broad Institute, 2009)
